Measurements: PMC12203311, “Design, synthesis, in silico and in vitro evaluation of pyrrole–indole hybrids as dual tubulin and aromatase inhibitors with potent anticancer activities” (RSC Advances, 2025)
Like-named read-outs stand apart in the source and are kept apart here.

How the values were obtained:
MOLT-4 = test: NCI60 five-dose screen; type: cell-based; conditions: Homo sapiens, MOLT-4, leukemia
NCI-H226 = test: NCI60 five-dose screen; type: cell-based; conditions: Homo sapiens, NCI-H226, NSC lung cancer
NCI-H322M = test: NCI60 five-dose screen; type: cell-based; conditions: Homo sapiens, NSC lung cancer
HCC-2998 = test: NCI60 five-dose screen; type: cell-based; conditions: Homo sapiens, HCC-2998, colon cancer
HCT-116 = test: NCI60 five-dose screen; type: cell-based; conditions: Homo sapiens, HCT-116, colon cancer
KM12 = test: NCI60 five-dose screen; type: cell-based; conditions: Homo sapiens, KM12, colon cancer
SW-620 = test: NCI60 five-dose screen; type: cell-based; conditions: Homo sapiens, SW-620, colon cancer
SF-268 = test: NCI60 five-dose screen; type: cell-based; conditions: Homo sapiens, SF-268, CNS cancer
M14 = test: NCI60 five-dose screen; type: cell-based; conditions: Homo sapiens, M14, melanoma
MDA-MB-435 = test: NCI60 five-dose screen; type: cell-based, human; conditions: for CC50: read-out: LC50 (the source's name)
OVCAR-5 = test: NCI60 five-dose screen; type: cell-based; conditions: Homo sapiens, OVCAR-5, ovarian cancer
786-0 = test: NCI60 five-dose screen; type: cell-based; conditions: Homo sapiens, 786-0, renal cancer
A498 = test: NCI60 five-dose screen; type: cell-based; conditions: Homo sapiens, A498, renal cancer
RXF 393 = test: NCI60 five-dose screen; type: cell-based; conditions: Homo sapiens, RXF 393, renal cancer
UO-31 = test: NCI60 five-dose screen; type: cell-based; conditions: Homo sapiens, UO-31, renal cancer
HS 578T = test: NCI60 five-dose screen; type: cell-based; conditions: Homo sapiens, breast cancer
T-47D = test: NCI60 five-dose screen; type: cell-based; conditions: Homo sapiens, T47D, breast cancer
MDA-MB-468 = test: NCI60 five-dose screen; type: cell-based; conditions: Homo sapiens, MDA-MB-468, breast cancer
Human CYP19 (aromatase) = target: T1, Human CYP19 (aromatase) (Homo sapiens, UniProt P11511); test: Aromatase inhibition assay (DBF fluorometric substrate); type: biochemical; conditions: active defined as IC50 < 12.5 µM
T1 construct: purchased GENTEST, Woburn, MA 456260; host or cells: baculovirus/insect cells
T1 sequence (P11511 1-503): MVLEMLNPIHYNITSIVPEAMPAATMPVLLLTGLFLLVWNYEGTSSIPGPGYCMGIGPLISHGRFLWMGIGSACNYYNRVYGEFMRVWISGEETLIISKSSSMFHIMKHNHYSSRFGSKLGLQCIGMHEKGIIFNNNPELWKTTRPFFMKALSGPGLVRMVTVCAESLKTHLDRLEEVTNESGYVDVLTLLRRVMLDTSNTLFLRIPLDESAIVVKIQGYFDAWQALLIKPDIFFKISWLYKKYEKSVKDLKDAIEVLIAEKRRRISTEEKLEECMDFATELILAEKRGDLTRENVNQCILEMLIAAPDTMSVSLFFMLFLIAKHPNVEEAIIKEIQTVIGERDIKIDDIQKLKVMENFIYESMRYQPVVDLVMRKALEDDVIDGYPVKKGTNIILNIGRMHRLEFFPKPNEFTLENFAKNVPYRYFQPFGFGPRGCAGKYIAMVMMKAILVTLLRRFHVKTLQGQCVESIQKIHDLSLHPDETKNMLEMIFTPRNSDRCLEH
Outline: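 Supersomes expressing human CYP19 plus oxidoreductase (baculovirus/insect cell) with fluorometric substrate DBF; cofactor mixture pre-incubated 10 min at 37 °C, reaction run 30 min at 37 °C, stopped with NaOH. Fluorescence read at ex 490/em 530 nm.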

[1] = tested on: T47D breast cancer cell line; test: Cytotoxicity MTT assay, T47D; type: cell-based, human; conditions: Homo sapiens, T47D; MTT, 48 hours
Outline: (§1)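 10 000 cells/well, overnight attachment; compound 48 h in DMEM/10% FBS, 37 °C, 5% CO2. MTT 0.5 mg mL^−1, 3 h; formazan in DMSO; A570. % viability vs DMSO vehicle.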

[2] = Cytotoxicity MTT assay, L929; type: cell-based, mouse; conditions: mouse, L929 fibroblast cells; MTT, 48 hours
Outline: as §1

[3] = tested on: L929 normal mouse fibroblast cell line; test: Cytotoxicity MTT assay, L929; type: cell-based; conditions: IC50 (L929)/IC50 (T47D)
Outline: as §1

[4] = read-out: LC50 (the source's name)

Work on `CCOC(=O)c1cc(/C=N/NC(=O)c2[nH]c3ccc(Br)cc3c2-c2ccccc2)c[nH]1` [Derivative 3v, Ethyl (E)-4-((2-(5-bromo-3-phenyl-1H-indole-2-carbonyl)hydrazono)methyl)-1H-pyrrole-2-carboxylate] yielded a GI50 (MOLT-4) of 3.91 µM, a CC50 (MOLT-4; [4]) of over 100 µM and a GI50 (NCI-H226) of 4.21 µM. It also gave a CC50 (NCI-H226; [4]) of 46.2 µM, a GI50 (NCI-H322M) of 4.42 µM and a CC50 (NCI-H322M; [4]) of 76.1 µM. For the same compound, the GI50 (HCC-2998) was 4.17 µM, the CC50 (HCC-2998; [4]) was 42.1 µM and the GI50 (HCT-116) was 3.42 µM. It also gave a CC50 (HCT-116; [4]) of 50.5 µM, a GI50 (KM12) of 3.37 µM and a CC50 (KM12; [4]) of 35.5 µM. It also gave a GI50 (SW-620) of 4.41 µM, a CC50 (SW-620; [4]) of 40.1 µM and a GI50 (SF-268) of 6.04 µM. The CC50 (SF-268; [4]) was over 100 µM, the GI50 (M14) was 3.54 µM and the CC50 (M14; [4]) was 41.3 µM. It also gave a CC50 (MDA-MB-435; Homo sapiens, MDA-MB-435, MDA-MB-435, melanoma) of 9.35 µM, a GI50 (MDA-MB-435; Homo sapiens, MDA-MB-435, melanoma) of 1.54 µM and a CC50 (MDA-MB-435; MDA-MB-435, melanoma) of 9.53 µM. The GI50 (OVCAR-5) was 3.49 µM, the CC50 (OVCAR-5; [4]) was 37.4 µM and the GI50 (786-0) was 6.01 µM. The CC50 (786-0; [4]) was 53.3 µM, the GI50 (A498) was 12.9 µM and the CC50 (A498; [4]) was 52.1 µM. The GI50 (RXF 393) was 2.56 µM, the CC50 (RXF 393; [4]) was 33 µM and the GI50 (UO-31) was 4.21 µM. It also gave a CC50 (UO-31; [4]) of 61.9 µM, a GI50 (HS 578T) of 3.11 µM and a CC50 (HS 578T; [4]) of over 100 µM. The GI50 (T-47D) was 5.88 µM, the CC50 (T-47D; [4]) was over 100 µM and the GI50 (MDA-MB-468) was 2.6 µM. For the same compound, the CC50 (MDA-MB-468; [4]) was 34 µM, the IC50 (Human CYP19 (aromatase)) was 2.5 ± 0.6 µM and the IC50 [1] was 24.9 ± 8.4 µM. The IC50 at 48 h [2] was 90.1 ± 40.3 µM and the “Selectivity index (SI)” value [3] was 3.62.
